The values below come from PMC11061149, “Protein mimetic 2D FAST rescues alpha synuclein aggregation mediated early and post disease Parkinson’s phenotypes” (Nature Communications, 2024).

Test [1] concerns UA196 worms. The experiment in a line: ROS level in UA196 worms (H2DCFDA dye). It counts as in vivo, C. elegans. Here is the method:
The worm strains were bleached at the same time and the eggs were incubated on PLATE 1. On day two, the worms were divided into two batches. One half of the worms were transferred (using M9 buffer) on PLATE 2 (without ligand) and the second half of the worms were transferred to PLATE 3 (with ligand). The concentration of the ligands was 50 µM as described in the main manuscript. On day four, the ligand (10–50 μM in M9 buffer with 0.1%-0.5% DMSO, v/v) was spotted again atop the PLATE 3 at 20 °C. The worms were incubated on PLATE 2 or PLATE 3 up to day eight at 20 °C in an incubator with constant humidity. On day eight, the worms were transferred into 1.7 mL microcentrifuge tubes using M9 buffer (1 mL) and washed with M9 buffer (1 mL and three times) by centrifugation for 2 min at 700xg and 20 °C. Subsequently, a total of 100 worms/well were transferred to a Costar 96-well black plate (Corning, Kennebunk, ME) containing 100 μL solution, including M9 buffer (89 μL), worm solution (10 μL and 100 worms), and 2’,7’-dichlorofluorescein diacetate (H2DCFDA) dye (1 μL, 50 μM, stock solution = 5 mM in cell culture grade DMSO, 99% pure). As a control, 99 μL of M9 buffer and 1 μL of 5 mM H2DCFDA reaction solution was placed in the wells. Subsequently, the Costar 96-well plate was gently shaken for 30 sec at 20 °C and the fluorescence intensity was measured (λex = 485 nm and λem = 530 nm) at multiple time points (0 to 120 min) using the Infinite M200 Pro Plate Reader (Tecan, Männedorf, Switzerland)[65],[89].
For confocal imaging, the same UA196 worms (in the absence and presence of ligands) used for the quantification of ROS, were transferred from the 96-well plate into PLATE 2, air-dried into the sterile laminar flow hood. The worms ( ~ 10 worms) were transferred to a cover slide containing an anesthetic (40 mM sodium azide) and mounted on a glass microscope slide containing 2% agarose pads for the confocal imaging as described in the previous sections. This experiment consisted of three biological replicates and each biological replicate consisted of three technical replicates.

A further test concerns the target T1, αS PMCA samples (Homo sapiens, UniProt P37840).
T1 construct: made in house; host or cells: E. coli BL21(DE3)
The experiment in a line: Proteinase K digestion of PMCA samples. It counts as biochemical. The following applies: cycle three to cycle five, in the presence of NS132. How it is done:
A Protease K (PK) solution at 50 μg/mL (IBI Scientific, Dubuque, IA) in digestion buffer (10 mM Tris, pH 8.0, 2 mM CaCl2) was diluted (0.1 eq.) into 30 μL of PMCA solution (with or without NS132) and incubated for 30 min at 37 °C. Subsequently, the samples were diluted (1:1, v/v) in SDS Protein Gel Loading Dye 2× (Quality Biological, Gaithersburg, MD) and loaded on Mini-PROTEAN TGX Stain-Free Protein Gel (BioRad, Hercules, CA). The gel was stained using the Fairbanks staining method and imaged using ChemiDoc MP (BioRad, Hercules, CA).

Test [2] concerns UA196 worms. The experiment in a line: Chemotaxis assay of UA196 worms. Conditions: 50 µM ligand, day 10, E. coli attractant vs ethanol repellent. It counts as in vivo, C. elegans. Here is the method:
For chemotaxis assay, the Chemotaxis (CTX) media plates (2% Agar, 5 mM KH2PO4, 1 mM CaCl2, 1 mM MgSO4, 75 µM FUDR), referred to as PLATE 7, and CTX buffer (5 mM KH2PO4, 1 mM CaCl2, and 1 mM MgSO4) were prepared using previous protocols[24],[78],[85],[86]. The PLATE 7 (without ligand) were treated with ligand (50 µM, stock conc. = 10 mM in DMSO) that was dissolved in CTX buffer (total volume = 300 µL) and was spotted atop the CTX media plates at 20 °C, referred to as PLATE 8. For CTX assay, we prepared another plate referred to as PLATE 9, which was PLATE 7 divided into four equal quadrants and designated as A and C (diagonally opposite), B and D (diagonally opposite). […] The experiment on the WMicroTracker ARENA plate reader (Phylumtech, Santa Fe, Argentina) started within 1 h of the transfer of the worms at 20 °C. […] On day 3, a total of 50 worms were transferred to the center of the PLATE 9 using CTX buffer ( ~20 µL) and the number of worms were counted under an Olympus microscope (SZ-6145, Waltham, MA). […] The worm activity was monitored using the WMicroTracker ARENA plate reader (Phylumtech, Santa Fe, Argentina) at 20 °C for 2 h. […] For day 10, 50 worms (N2 or UA196) from PLATE 7 (without ligand) or PLATE 8 (with 50 µM ligand) were transferred to PLATE 9 using CTX buffer ( ~ 20 µL) and the number of worms were counted under an Olympus microscope (SZ-6145, Waltham, MA). […]

For `Cc1ccc(NC(=O)c2ccc(NC(=O)c3ccc([N+](=O)[O-])c(NCCc4c[nH]c5ccccc45)n3)c(NCC3CCCCC3)n2)c(OCC(=O)O)n1` [NS132], in the test with UA196 worms [1] (50 µM ligand on day two and four, day eight), the “intracellular ROS level in UA196 worms, in words” value is “low”. Moreover, the “ROS dye signal, Average” value with UA196 worms [1] (UA196+NS132, Time 0 min) worked out at 169.8; with UA196 worms [1] (UA196+NS132, Time 60 min) it was 210.6; with UA196 worms [1] (UA196+NS132, Time 120 min), 301.6. Further, the “proteinase K (PK) resistance of PMCA samples, in words” value at αS PMCA samples was “completely degraded”. The “behavioral deficits / chemotaxis index of UA196 worms, in words” value in the test on UA196 worms [2] was “able to rescue behavioral deficits”.
